Measurements taken from PubChem BioAssay AID2060883 (Molecular Pharmacology Branch, DTP, NCI, 2025).

Tested on: 843782-103-R-J1-PDC complex spheroid viability
Test: Anticancer human tumor 843782-103-R-J1-PDC patient-derived lung adenocarcinoma cell line growth inhibition [RAS]
Details: for IC50: curve of first compound; for viability, T/C: stronger effect = lower value
Summary of the method: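 Multi-cell-type spheroids: tumor cells plus HUVEC endothelial cells and mesenchymal stem cells. RAS-pathway inhibitors were combined with targeted agents, each dosed in half-log steps down from clinical Cmax, or from 10 microM when Cmax was unknown.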

[1] = second compound 0.0316 µM, first compound 0.0316 µM
[2] = second compound 0.0316 µM, first compound 0.1 µM
[3] = second compound 0.0316 µM, first compound 0.316 µM
[4] = second compound 0.0316 µM, first compound 1 µM
[5] = second compound 0.0316 µM, first compound 3.16 µM
[6] = second compound 0.0316 µM, first compound 10 µM
[7] = second compound 0.1 µM, first compound 0.0316 µM
[8] = second compound 0.1 µM, first compound 0.1 µM
[9] = second compound 0.1 µM, first compound 0.316 µM
[10] = second compound 0.1 µM, first compound 1 µM
[11] = second compound 0.1 µM, first compound 3.16 µM
[12] = second compound 0.1 µM, first compound 10 µM
[13] = second compound 0.316 µM, first compound 0.0316 µM
[14] = second compound 0.316 µM, first compound 0.1 µM
[15] = second compound 0.316 µM, first compound 0.316 µM
[16] = second compound 0.316 µM, first compound 1 µM
[17] = second compound 0.316 µM, first compound 3.16 µM
[18] = second compound 0.316 µM, first compound 10 µM
[19] = second compound 1 µM, first compound 0.0316 µM
[20] = second compound 1 µM, first compound 0.1 µM
[21] = second compound 1 µM, first compound 0.316 µM
[22] = second compound 1 µM, first compound 1 µM
[23] = second compound 1 µM, first compound 3.16 µM
[24] = second compound 1 µM, first compound 10 µM
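Further: viability read after seven days of compound exposure.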

Molecule `CC(Nc1ccc2c(c1)OCCn1cc(N3C(=O)OCC3C(F)F)nc1-2)C(N)=O` (centres undefined) + C#Cc1c(F)ccc2cc(O)cc(-c3ncc4c(N5CC6CCC(C5)N6)nc(OCC56CCCN5CC(F)C6)nc4c3F)c12 has an IC50 (second compound 0.0316 µM) of 457 nM, an IC50 (second compound 0.1 µM) of 375 nM and an IC50 (second compound 0.316 µM) of 297 nM. For the same molecule, the IC50 (second compound 1 µM) was 174 nM, the IC50 (second compound 3.16 µM) was 57.7 nM and the IC50 (second compound 10 µM) was < 31.6 nM. It also gave a viability, T/C [1] of 96.3%, a viability, T/C [2] of 73.7% and a viability, T/C [3] of 59.3%. It also gave a viability, T/C [4] of 35.5%, a viability, T/C [5] of 24.5% and a viability, T/C [6] of 16.1%. It also gave a viability, T/C [7] of 96.4%, a viability, T/C [8] of 76.6% and a viability, T/C [9] of 50%. For the same molecule, the viability, T/C [10] was 36.3%, the viability, T/C [11] was 22.8% and the viability, T/C [12] was 15%. For the same molecule, the viability, T/C [13] was 91.2%, the viability, T/C [14] was 72.9% and the viability, T/C [15] was 46.2%. It also gave a viability, T/C [16] of 32.6%, a viability, T/C [17] of 23.2% and a viability, T/C [18] of 15%. The viability, T/C [19] was 89.9%, the viability, T/C [20] was 59.5% and the viability, T/C [21] was 39.6%. For the same molecule, the viability, T/C [22] was 25.1%, the viability, T/C [23] was 20% and the viability, T/C [24] was 10.9%. The viability, T/C (second compound 3.16 µM, first compound 0.0316 µM) was 63%, the viability, T/C (second compound 3.16 µM, first compound 0.1 µM) was 36.7% and the viability, T/C (second compound 3.16 µM, first compound 0.316 µM) was 26.6%. For the same molecule, the viability, T/C (second compound 3.16 µM, first compound 1 µM) was 18.2%, the viability, T/C (second compound 3.16 µM, first compound 3.16 µM) was 12.2% and the viability, T/C (second compound 3.16 µM, first compound 10 µM) was 8.25%. The viability, T/C (second compound 10 µM, first compound 0.0316 µM) was 41.2%, the viability, T/C (second compound 10 µM, first compound 0.1 µM) was 22.2% and the viability, T/C (second compound 10 µM, first compound 0.316 µM) was 21.3%. It also gave a viability, T/C (second compound 10 µM, first compound 1 µM) of 15.4%, a viability, T/C (second compound 10 µM, first compound 3.16 µM) of 8.8% and a viability, T/C (second compound 10 µM, first compound 10 µM) of 3.28%.
`Cc1nc(N2CCC3(CC2)COC(C)C3N)c(CO)nc1Sc1ccnc(N)c1Cl` (centres undefined) + C=CC(=O)N1CCN(c2nc(OCC3CCCN3C)nc3c(F)c(-c4nc(N)cc(C)c4C(F)(F)F)c(Cl)cc23)C(C)C1 showed an IC50 (second compound 0.00316 µM) of 211 nM, an IC50 (second compound 0.01 µM) of 385 nM and an IC50 (second compound 0.0316 µM) of 200 nM. The IC50 (second compound 0.1 µM) was 311 nM, the IC50 (second compound 0.316 µM) was 277 nM and the IC50 (second compound 1 µM) was 313 nM. The viability, T/C (second compound 0.00316 µM, first compound 0.0316 µM) was 88.9%, the viability, T/C (second compound 0.00316 µM, first compound 0.1 µM) was 58.6% and the viability, T/C (second compound 0.00316 µM, first compound 0.316 µM) was 47.4%. The viability, T/C (second compound 0.00316 µM, first compound 1 µM) was 32.8%, the viability, T/C (second compound 0.00316 µM, first compound 3.16 µM) was 32.5% and the viability, T/C (second compound 0.00316 µM, first compound 10 µM) was 27.2%. It also gave a viability, T/C (second compound 0.01 µM, first compound 0.0316 µM) of 79.5%, a viability, T/C (second compound 0.01 µM, first compound 0.1 µM) of 66.8% and a viability, T/C (second compound 0.01 µM, first compound 0.316 µM) of 51.4%. It also gave a viability, T/C (second compound 0.01 µM, first compound 1 µM) of 37.4%, a viability, T/C (second compound 0.01 µM, first compound 3.16 µM) of 35.6% and a viability, T/C (second compound 0.01 µM, first compound 10 µM) of 22.6%. For the same molecule, the viability, T/C [1] was 77.7%, the viability, T/C [2] was 57.6% and the viability, T/C [3] was 45.8%. The viability, T/C [4] was 36.2%, the viability, T/C [5] was 30.5% and the viability, T/C [6] was 32.1%. It also gave a viability, T/C [7] of 70%, a viability, T/C [8] of 61.4% and a viability, T/C [9] of 51.5%. For the same molecule, the viability, T/C [10] was 35%, the viability, T/C [11] was 35.1% and the viability, T/C [12] was 27.1%. For the same molecule, the viability, T/C [13] was 85.7%, the viability, T/C [14] was 67% and the viability, T/C [15] was 48%. For the same molecule, the viability, T/C [16] was 34.2%, the viability, T/C [17] was 35.5% and the viability, T/C [18] was 26.9%. It also gave a viability, T/C [19] of 80.6%, a viability, T/C [20] of 64.3% and a viability, T/C [21] of 49.7%. For the same molecule, the viability, T/C [22] was 40.2%, the viability, T/C [23] was 31.1% and the viability, T/C [24] was 29.7%.
